Assay results from the Kinase Knowledgebase extract (Sharma et al. 2016).

Tests used:
PIK3CA (human) = PIK3CA (human) (UniProt P42336); experiment: Assessment of PIK3CA Kinase Activity
PIK3CG (human) = PIK3CG (human) (UniProt P48736); experiment: Assessment of PIK3CG Kinase Activity
PIK3CG (human), sequence (P48736 whole entry, looked up): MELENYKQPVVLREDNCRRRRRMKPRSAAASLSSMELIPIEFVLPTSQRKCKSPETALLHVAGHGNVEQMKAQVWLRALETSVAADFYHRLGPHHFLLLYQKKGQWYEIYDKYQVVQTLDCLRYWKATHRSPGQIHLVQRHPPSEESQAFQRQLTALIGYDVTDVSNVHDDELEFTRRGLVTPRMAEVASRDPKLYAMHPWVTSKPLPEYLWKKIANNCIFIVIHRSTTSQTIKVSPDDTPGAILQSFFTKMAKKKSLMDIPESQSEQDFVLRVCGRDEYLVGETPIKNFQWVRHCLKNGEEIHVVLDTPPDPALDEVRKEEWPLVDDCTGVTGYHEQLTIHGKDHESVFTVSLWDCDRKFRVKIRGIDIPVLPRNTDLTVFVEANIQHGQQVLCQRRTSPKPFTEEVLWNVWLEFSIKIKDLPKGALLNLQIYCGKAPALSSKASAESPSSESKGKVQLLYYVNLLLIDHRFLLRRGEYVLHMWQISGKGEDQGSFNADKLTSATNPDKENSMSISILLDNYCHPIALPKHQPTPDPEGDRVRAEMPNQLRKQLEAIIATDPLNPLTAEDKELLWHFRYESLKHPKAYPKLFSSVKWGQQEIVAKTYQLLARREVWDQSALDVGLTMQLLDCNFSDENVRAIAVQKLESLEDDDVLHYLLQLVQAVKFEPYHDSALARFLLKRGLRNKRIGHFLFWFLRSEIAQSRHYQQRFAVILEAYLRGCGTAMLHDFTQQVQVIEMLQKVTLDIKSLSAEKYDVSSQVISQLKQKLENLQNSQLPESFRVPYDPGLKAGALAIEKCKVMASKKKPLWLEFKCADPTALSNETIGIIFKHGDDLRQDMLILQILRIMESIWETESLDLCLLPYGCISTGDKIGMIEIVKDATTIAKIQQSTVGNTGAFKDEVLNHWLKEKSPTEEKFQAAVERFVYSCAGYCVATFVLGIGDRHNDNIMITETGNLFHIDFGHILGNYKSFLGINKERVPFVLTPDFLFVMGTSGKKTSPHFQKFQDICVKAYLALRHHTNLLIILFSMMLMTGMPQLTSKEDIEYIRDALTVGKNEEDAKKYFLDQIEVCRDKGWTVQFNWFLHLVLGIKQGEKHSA

PIK3CA (human), sequence (P42336 whole entry, looked up): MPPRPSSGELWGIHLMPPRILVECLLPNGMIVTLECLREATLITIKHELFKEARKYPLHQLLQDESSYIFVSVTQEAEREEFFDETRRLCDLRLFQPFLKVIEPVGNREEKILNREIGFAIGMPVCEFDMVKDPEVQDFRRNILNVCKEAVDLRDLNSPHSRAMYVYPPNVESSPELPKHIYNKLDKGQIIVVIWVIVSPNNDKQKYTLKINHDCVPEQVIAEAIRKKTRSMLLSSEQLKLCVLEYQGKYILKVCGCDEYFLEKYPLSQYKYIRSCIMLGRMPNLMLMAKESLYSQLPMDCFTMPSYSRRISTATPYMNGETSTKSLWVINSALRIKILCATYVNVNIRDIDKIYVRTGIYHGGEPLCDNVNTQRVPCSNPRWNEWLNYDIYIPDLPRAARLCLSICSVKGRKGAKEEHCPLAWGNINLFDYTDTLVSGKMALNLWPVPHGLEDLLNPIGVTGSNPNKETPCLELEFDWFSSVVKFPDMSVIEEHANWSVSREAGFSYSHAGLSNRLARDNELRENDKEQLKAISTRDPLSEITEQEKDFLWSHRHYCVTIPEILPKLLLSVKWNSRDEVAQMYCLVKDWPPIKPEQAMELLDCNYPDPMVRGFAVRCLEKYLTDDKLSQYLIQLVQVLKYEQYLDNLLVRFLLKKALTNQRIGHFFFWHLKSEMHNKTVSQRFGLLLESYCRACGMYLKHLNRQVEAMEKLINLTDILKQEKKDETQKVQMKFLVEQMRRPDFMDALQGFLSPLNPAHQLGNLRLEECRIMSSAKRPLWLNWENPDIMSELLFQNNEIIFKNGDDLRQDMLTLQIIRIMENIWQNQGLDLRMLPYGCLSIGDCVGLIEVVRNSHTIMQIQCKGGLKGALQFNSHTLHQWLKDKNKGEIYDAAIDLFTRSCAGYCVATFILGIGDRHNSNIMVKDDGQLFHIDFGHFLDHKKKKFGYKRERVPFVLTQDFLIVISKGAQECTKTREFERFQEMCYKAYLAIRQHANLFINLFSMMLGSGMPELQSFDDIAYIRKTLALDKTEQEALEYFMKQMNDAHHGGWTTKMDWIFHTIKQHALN

Compound | Ki (PIK3CA (human)) | Ki (PIK3CG (human))
COc1ncc(-c2ccc3nc(Nc4cnccn4)sc3c2)cc1OC(C)C | < 100 nM | < 100 nM
COc1cc(-c2ccc3nc(Nc4ccccn4)sc3c2)cnc1OC | < 100 nM | < 100 nM
COc1cc(-c2ccc3nc(Nc4cnccn4)sc3c2)cnc1OC | < 100 nM | < 100 nM
CCCn1ccc(Nc2nc3ccc(-c4cnc(OC)c(OC)c4)cc3s2)n1 | < 100 nM | < 100 nM
FC(F)(F)c1cncc(-c2ccc3nc(Nc4cccnc4)sc3n2)c1 | – | < 100 nM
COc1ncc(-c2ccc3nc(Nc4cnccn4)sc3n2)cc1OC(C)C | < 100 nM | < 100 nM
COc1cc(-c2ccc3nc(Nc4cnccn4)sc3c2)cnc1C | < 100 nM | < 100 nM
CCOc1cc(-c2ccc3nc(Nc4cccnc4)sc3n2)cnc1OCC | – | < 100 nM
COc1cc(-c2ccc3nc(Nc4ncccn4)sc3c2)cnc1OC | < 100 nM | < 100 nM
FC(F)(F)c1cncc(-c2ccc3nc(Nc4cnccn4)sc3c2)c1 | < 100 nM | –
FC(F)(F)c1cncc(-c2ccc3nc(Nc4cnn(CC5CCCO5)c4)sc3c2)c1 (centres undefined) | < 100 nM | < 100 nM
Nc1ccc(Nc2nc3ccc(-c4cncc(C(F)(F)F)c4)cc3s2)cn1 | – | < 100 nM
COc1cncc(-c2ccc3nc(Nc4nc(C)cs4)sc3c2)c1 | – | < 100 nM
COc1cncc(-c2ccc3nc(Nc4ccc5c(c4)N(C(C)=O)CC5)sc3c2)c1 | – | < 100 nM
COc1cc(-c2ccc3nc(Nc4cnccn4)sc3c2)cnc1N | < 100 nM | < 100 nM
CCN(CC)C(=O)c1cccc(Nc2nc3ccc(-c4cncc(OC)c4)cc3s2)c1 | – | < 100 nM
COc1cncc(-c2ccc3nc(Nc4ccccn4)sc3c2)c1 | – | < 100 nM
CNC(=O)Cc1ccc(Nc2nc3ccc(-c4cncc(OC)c4)cc3s2)cc1 | – | < 100 nM

Compound | Ki (PIK3CA (human)) | Ki (PIK3CG (human))
COc1cc(-c2ccc3nc(Nc4cc[nH]n4)sc3c2)cnc1OC | < 100 nM | < 100 nM
O=C(O)Cn1cc(Nc2nc3ccc(-c4cncc(C(F)(F)F)c4)cc3s2)cn1 | < 100 nM | < 100 nM
CCOc1cc(-c2ccc3nc(Nc4cnccn4)sc3c2)cnc1OC | < 100 nM | < 100 nM
COc1ncc(-c2ccc3nc(Nc4cccnc4)sc3n2)cc1OC(C)C | < 100 nM | < 100 nM
COc1cc(-c2ccc3nc(Nc4ncc(C)s4)sc3c2)cnc1OC | < 100 nM | < 100 nM
CCn1cc(Nc2nc3ccc(-c4cncc(C(F)(F)F)c4)cc3s2)cn1 | < 100 nM | –
COc1cc(-c2ccc3nc(Nc4nnc(C)s4)sc3c2)cnc1OC | < 100 nM | < 100 nM
CNC(=O)Cn1cc(Nc2nc3ccc(-c4cncc(C(F)(F)F)c4)cc3s2)cn1 | < 100 nM | < 100 nM
COc1cc(-c2ccc3nc(Nc4cccc(C)n4)sc3c2)cnc1OC | < 100 nM | < 100 nM
CCc1ncc(-c2ccc3nc(Nc4cnccn4)sc3c2)cc1OC | – | < 100 nM
COc1cncc(-c2ccc3nc(Nc4cccc(S(C)(=O)=O)c4)sc3c2)c1 | – | < 100 nM
COc1cncc(-c2ccc3nc(Nc4ccn(C)n4)sc3c2)c1 | < 100 nM | < 100 nM
Cc1ccc(Nc2nc3ccc(-c4cncc(C(F)(F)F)c4)cc3s2)nn1 | – | < 100 nM
COc1cncc(-c2ccc3nc(Nc4cccc(C)n4)sc3c2)c1 | – | < 100 nM
FC(F)(F)c1cncc(-c2ccc3nc(Nc4ccncn4)sc3c2)c1 | < 100 nM | < 100 nM
Cn1cc(Nc2nc3ccc(-c4cncc(C(F)(F)F)c4)cc3s2)cn1 | – | < 100 nM
COc1cc(-c2ccc3nc(Nc4ccncn4)sc3c2)cnc1OC | < 100 nM | < 100 nM
COc1cc(-c2ccc3nc(Nc4cncc(C)n4)sc3c2)cnc1OC | < 100 nM | < 100 nM

The remaining lines, values ahead:

Ki (PIK3CA (human)) | Ki (PIK3CG (human)) | Compound
– | < 100 nM | COc1cncc(-c2ccc3nc(Nc4cccnc4)sc3c2)c1
< 100 nM | < 100 nM | COc1cncc(Nc2nc3ccc(-c4cnc(OC)c(OC)c4)cc3s2)n1
– | < 100 nM | COc1cncc(-c2ccc3nc(Nc4ccc(Cl)nn4)sc3c2)c1
< 100 nM | < 100 nM | COc1cc(-c2ccc3nc(Nc4cccnc4)sc3n2)cnc1OC
– | < 100 nM | COc1cncc(-c2ccc3nc(Nc4cccnc4)sc3n2)c1
< 100 nM | < 100 nM | COc1cncc(-c2ccc3nc(Nc4nccs4)sc3c2)c1
– | < 100 nM | COc1cc(-c2ccc3nc(Nc4cnccn4)sc3n2)cnc1OC
< 100 nM | < 100 nM | COc1cc(-c2ccc3nc(Nc4nccc(C)n4)sc3c2)cnc1OC
< 100 nM | < 100 nM | CCOc1cncc(Nc2nc3ccc(-c4cnc(OC)c(OC)c4)cc3s2)n1
< 100 nM | < 100 nM | COc1cncc(-c2ccc3nc(Nc4cncc(C)n4)sc3c2)c1
– | < 100 nM | COc1cncc(-c2ccc3nc(Nc4cccc(NC(C)=O)c4)sc3c2)c1
< 100 nM | – | COc1cncc(-c2ccc3nc(Nc4cccc(CO)c4)sc3c2)c1
< 100 nM | – | CCN(CC)C(=O)c1cccc(Nc2nc3ccc(-c4cncc(OC)c4)cc3s2)n1
< 100 nM | < 100 nM | COCCn1cc(Nc2nc3ccc(-c4cncc(C(F)(F)F)c4)cc3s2)cn1
< 100 nM | < 100 nM | COc1cncc(-c2ccc3nc(Nc4cc[nH]n4)sc3c2)c1
< 100 nM | < 100 nM | COc1cc(-c2ccc3nc(Nc4ccn(C)n4)sc3c2)cnc1OC

Ki (PIK3CA (human)) | Ki (PIK3CG (human)) | Compound
< 100 nM | < 100 nM | CCOc1ncc(-c2ccc3nc(Nc4cnccn4)sc3c2)cc1OC
– | < 100 nM | COc1cncc(-c2ccc3nc(Nc4nncs4)sc3c2)c1
< 100 nM | < 100 nM | COc1cccc(Nc2nc3ccc(-c4cnc(OC)c(OC)c4)cc3s2)n1
< 100 nM | < 100 nM | COc1cc(-c2ccc3nc(Nc4cccnc4)sc3c2)cnc1OC
< 100 nM | < 100 nM | CCOc1ncc(-c2ccc3nc(Nc4cnccn4)sc3n2)cc1OC
< 100 nM | < 100 nM | COc1cncc(-c2ccc3nc(Nc4ccc5nc[nH]c5c4)sc3c2)c1
– | < 100 nM | COc1cncc(-c2ccc3nc(Nc4ccc(N(C)C(C)=O)cc4)sc3c2)c1
< 100 nM | < 100 nM | CCOc1ncc(-c2ccc3nc(Nc4cccnc4)sc3n2)cc1OC
< 100 nM | < 100 nM | COc1cncc(-c2ccc3nc(Nc4ccc(C)nn4)sc3c2)c1
– | < 100 nM | COc1cncc(-c2ccc3nc(Nc4ccc(N)cc4)sc3c2)c1
– | < 100 nM | COc1cncc(-c2ccc3nc(Nc4ccc(CC(N)=O)cc4)sc3c2)c1
< 100 nM | < 100 nM | CCOc1cc(-c2ccc3nc(Nc4cnccn4)sc3n2)cnc1OCC
< 100 nM | < 100 nM | CCOc1cc(-c2ccc3nc(Nc4cnccn4)sc3c2)cnc1OCC
– | < 100 nM | CCCCNS(=O)(=O)c1cccc(Nc2nc3ccc(-c4cncc(OC)c4)cc3s2)c1
< 100 nM | < 100 nM | COc1cncc(-c2ccc3nc(Nc4cnccn4)sc3c2)c1
< 100 nM | < 100 nM | COc1cncc(-c2ccc3nc(Nc4ccncn4)sc3c2)c1
